What was measured:
primate [1] = settings: Sub-acute repeat dose toxicity; Oral; Gavage/Intubation; dose end: 8 day; group: systemic; systemic / hematology / neutrophils / neutrophils + systemic / in life observation / body weight / body weight + systemic / in life …
rabbit = settings: Sub-acute repeat dose toxicity, Oral, Gavage/Intubation, dose end: 5 day, group: systemic
rat [2] = settings: Sub-acute repeat dose toxicity, sprague dawley, Oral, Gavage/Intubation, dose end: 28 day, group: systemic
rat [3] = settings: Sub-acute repeat dose toxicity, Oral, Gavage/Intubation, dose end: 14 day, group: systemic
primate [4] = settings: Sub-acute repeat dose toxicity; Oral; Gavage/Intubation; dose end: 35 day; group: systemic; systemic / in life observation / clinical signs / emesis
primate [5] = settings: Sub-acute repeat dose toxicity, Oral, Gavage/Intubation, dose end: 15 day, group: systemic
primate [6] = settings: Sub-acute repeat dose toxicity; Oral; Gavage/Intubation; dose end: 5 day; group: systemic; systemic / clinical chemistry / alanine aminotransferase (alt/sgpt) / alanine aminotransferase (alt/sgpt) + systemic / clinical chemistry / …
dog [7] = settings: Sub-acute repeat dose toxicity; beagle; Oral; Gavage/Intubation; dose end: 5 day; group: systemic; systemic / in life observation / clinical signs / emesis
rat [8] = settings: Sub-acute repeat dose toxicity; Oral; Gavage/Intubation; dose end: 14 day; group: systemic; systemic / clinical chemistry / protein / protein + systemic / hematology / erythrocyte (rbc) count differential / erythrocyte (rbc) + …
primate [9] = settings: Sub-acute repeat dose toxicity; Oral; Gavage/Intubation; dose end: 7 day; group: systemic; systemic / in life observation / clinical signs / abnormal feces + systemic / hematology / erythrocyte (rbc) count differential / …
rat [10] = settings: Sub-acute repeat dose toxicity, Oral, Gavage/Intubation, dose end: 7 day, group: systemic
primate [11] = settings: Sub-acute repeat dose toxicity; Oral; Gavage/Intubation; dose end: 14 day; group: systemic; systemic / clinical chemistry / [other] / [other] + systemic / clinical chemistry / testosterone / testosterone + systemic / hematology / …
primate [12] = settings: Subchronic oral toxicity in nonrodent, Gavage/Intubation, dose end: 42 day, group: systemic, systemic / clinical chemistry / [other] / [other] + systemic / clinical chemistry / cytochrome p450, nos / cytochrome p450, nos + systemic…
mouse [13] = settings: Carcinogenicity, cd1, Oral, Feed, dose end: 18 month, group: systemic
rat [14] = settings: Prenatal developmental toxicity study, other, Oral, Gavage/Intubation, dose end: 16 GD
mouse [15] = settings: Subchronic oral toxicity in rodents, cd1, Feed, dose end: 90 day, group: systemic
dog [16] = settings: Chronic toxicity, beagle, Oral, Feed, dose end: 52 week, group: systemic
rat [17] = settings: Subchronic oral toxicity in rodents, sprague dawley, Feed, dose end: 90 day, group: systemic
dog [18] = settings: Subchronic oral toxicity in nonrodent, beagle, Feed, dose end: 90 day, group: systemic
rat [19] = settings: Multigenerational reproductive toxicity study, other, Oral, Feed, dose end: 2 generation
[20] = systemic / in life observation / clinical signs / [other] + systemic / in life observation / clinical signs / abnormal feces + systemic / in…
[21] = systemic / in life observation / clinical signs / abnormal feces + systemic / in life observation / clinical signs / general pallor + …
[22] = systemic / hematology / fibrinogen / fibrinogen + systemic / hematology / leukocyte (wbc) count differential / leukocyte (wbc) + systemic / …
[23] = systemic / pathology microscopic / blood / vasculitis + systemic / pathology microscopic / kidney / degeneration + systemic / pathology …
[24] = systemic / in life observation / clinical signs / nasal discharge + systemic / in life observation / clinical signs / salivation
[25] = systemic / pathology gross / intestine large / dilatation + systemic / pathology gross / intestine small / dilatation + systemic / pathology…
[26] = systemic / clinical chemistry / alanine aminotransferase (alt/sgpt) / alanine aminotransferase (alt/sgpt) + systemic / clinical chemistry / …
[27] = systemic / in life observation / body weight / body weight + systemic / in life observation / clinical signs / abnormal feces + systemic / …
[28] = systemic / clinical chemistry / protein / protein + systemic / hematology / neutrophils / neutrophils + systemic / in life observation / …
[29] = systemic / in life observation / food consumption / food consumption + systemic / clinical chemistry / cytochrome p450, nos / cytochrome …
[30] = group: developmental, developmental / developmental malformation / bone / malformation, total + developmental / developmental malformation / bone / misshapen + …
[31] = group: maternal, reproductive / reproductive performance / resorptions / resorptions + reproductive / reproductive performance / estrous cycle / corpora …
[32] = systemic / hematology / hemoglobin (hgb) / hemoglobin (hgb) + systemic / in life observation / body weight / body weight gain + systemic / …
[33] = systemic / pathology microscopic / liver / pigmentation
[34] = systemic / clinical chemistry / alanine aminotransferase (alt/sgpt) / alanine aminotransferase (alt/sgpt) + systemic / pathology microscopic…
[35] = systemic / hematology / erythrocyte (rbc) count differential / erythrocyte (rbc) + systemic / hematology / hematocrit (hct) / hematocrit (…
[36] = group: offspring, developmental / offspring survival late / lactation index / lactation index + developmental / offspring survival late / viability index / …
[37] = group: parental, systemic / hematology / methemoglobin / methemoglobin
[38] = group: reproductive, reproductive / reproductive performance / gestational length / gestational length + reproductive / reproductive performance / implantations…

CC(C)(O)c1ccc(CNC(=O)c2cccnc2Oc2ccc(F)cc2)cc1
LEL (primate [1]): 1 mg/kg/day | LOAEL (primate [1]): > 1 mg/kg/day | NEL (primate [1]): < 1 mg/kg/day | NOAEL (primate [1]): ≥ 1 mg/kg/day | LOAEL (rabbit; [20]): > 20 mg/kg/day | NOAEL (rabbit; [20]): ≥ 20 mg/kg/day | LEL (rabbit; [21]): 1 mg/kg/day | NEL (rabbit; [21]): < 1 mg/kg/day | LOAEL (rat [2]; [22]): > 20 mg/kg/day | NOAEL (rat [2]; [22]): ≥ 20 mg/kg/day | LEL (rat [2]; [23]): 1 mg/kg/day | NEL (rat [2]; [23]): < 1 mg/kg/day | LEL (rat [3]; [24]): 3 mg/kg/day | NEL (rat [3]; [24]): < 3 mg/kg/day | LOAEL (rat [3]; [25]): > 30 mg/kg/day | NOAEL (rat [3]; [25]): ≥ 30 mg/kg/day | LEL (primate [4]): 1 mg/kg/day | LOAEL (primate [4]): > 1 mg/kg/day | NEL (primate [4]): < 1 mg/kg/day | NOAEL (primate [4]): ≥ 1 mg/kg/day | LOAEL (primate [5]; [26]): > 20 mg/kg/day | NOAEL (primate [5]; [26]): ≥ 20 mg/kg/day | LEL (primate [5]; [27]): 3 mg/kg/day | NEL (primate [5]; [27]): < 3 mg/kg/day | LEL (primate [6]): 20 mg/kg/day | LOAEL (primate [6]): > 20 mg/kg/day | NEL (primate [6]): < 20 mg/kg/day | NOAEL (primate [6]): ≥ 20 mg/kg/day | LEL (dog [7]): 10 mg/kg/day | LOAEL (dog [7]): > 10 mg/kg/day | NEL (dog [7]): < 10 mg/kg/day | NOAEL (dog [7]): ≥ 10 mg/kg/day

Cc1oc(-c2ccccc2)nc1CCOc1cccc2c1ccn2CCC(=O)O
LEL (rat [8]): 10 mg/kg/day | LOAEL (rat [8]): > 1000 mg/kg/day | NEL (rat [8]): < 10 mg/kg/day | NOAEL (rat [8]): ≥ 1000 mg/kg/day | LEL (primate [9]): 100 mg/kg/day | LOAEL (primate [9]): > 2000 mg/kg/day | NEL (primate [9]): < 100 mg/kg/day | NOAEL (primate [9]): ≥ 2000 mg/kg/day | LOAEL (rat [10]; [28]): > 2000 mg/kg/day | NOAEL (rat [10]; [28]): ≥ 2000 mg/kg/day | LEL (rat [10]; [29]): 100 mg/kg/day | NEL (rat [10]; [29]): < 100 mg/kg/day | LEL (primate [11]): 100 mg/kg/day | LOAEL (primate [11]): > 2000 mg/kg/day | NEL (primate [11]): < 100 mg/kg/day | NOAEL (primate [11]): ≥ 2000 mg/kg/day | LEL (primate [12]): 100 mg/kg/day | LOAEL (primate [12]): > 100 mg/kg/day | NEL (primate [12]): < 100 mg/kg/day | NOAEL (primate [12]): ≥ 100 mg/kg/day

C#CCOc1cc(-n2nc3n(c2=O)CCCC3)c(Cl)cc1Cl [Azafenidin]
NEL (mouse [13]; systemic / pathology gross / full gross necropsy / proliferation): 4 mg/kg/day | LOAEL (mouse [13]; systemic / pathology microscopic / liver / adenoma + systemic / pathology microscopic / liver / pigmentation): 39.8 mg/kg/day | NOAEL (mouse [13]; systemic / pathology microscopic / liver / adenoma + systemic / pathology microscopic / liver / pigmentation + systemic / hematology / mean …): 4 mg/kg/day | LEL (mouse [13]; systemic / pathology microscopic / liver / adenoma + systemic / pathology microscopic / liver / pigmentation + systemic / pathology gross / …): 39.8 mg/kg/day | LEL (rat [14]; [30]): 24 mg/kg/day | LOAEL (rat [14]; [30]): 24 mg/kg/day | NEL (rat [14]; [30]): 16 mg/kg/day | NOAEL (rat [14]; [30]): 16 mg/kg/day | LEL (rat [14]; group: maternal, reproductive / reproductive performance / estrous cycle / corpora lutea): 16 mg/kg/day | LOAEL (rat [14]; group: maternal, reproductive / reproductive performance / resorptions / resorptions): 24 mg/kg/day | NEL (rat [14]; [31]): 8 mg/kg/day | NOAEL (rat [14]; [31]): 16 mg/kg/day | LOAEL (mouse [15]; [32]): 144 mg/kg/day | NEL (mouse [15]; [32]): 7.94 mg/kg/day | NOAEL (mouse [15]; [32]): 47.2 mg/kg/day | LEL (mouse [15]; [33]): 47.2 mg/kg/day | LOAEL (dog [16]; [34]): 0.86 mg/kg/day | NOAEL (dog [16]; [34]): 0.3 mg/kg/day | LEL (dog [16]; systemic / pathology microscopic / liver / cytoplasmic alteration): 0.3 mg/kg/day | NEL (dog [16]; systemic / pathology microscopic / liver / cytoplasmic alteration + systemic / clinical chemistry / alanine aminotransferase (alt/sgpt) / …): 0.16 mg/kg/day | LOAEL (rat [17]; [35]): 71.9 mg/kg/day | NEL (rat [17]; [35]): 4.02 mg/kg/day | NOAEL (rat [17]; [35]): 24.2 mg/kg/day | LEL (rat [17]; systemic / organ weight / kidney / relative to body weight): 24.2 mg/kg/day | LOAEL (dog [18]; systemic / pathology microscopic / liver / hypertrophy + systemic / pathology microscopic / liver / pigmentation): 2.02 mg/kg/day | NOAEL (dog [18]; systemic / pathology microscopic / liver / hypertrophy + systemic / pathology microscopic / liver / pigmentation + systemic / clinical …): 0.34 mg/kg/day | LEL (dog [18]; [33]): 0.34 mg/kg/day | NEL (dog [18]; [33]): < 0.34 mg/kg/day | LEL (rat [19]; [36]): 14.5 mg/kg/day | LOAEL (rat [19]; [36]): 14.5 mg/kg/day | NEL (rat [19]; [36]): 2.33 mg/kg/day | NOAEL (rat [19]; [36]): 2.33 mg/kg/day | LEL (rat [19]; [37]): 0.389 mg/kg/day | NEL (rat [19]; [37]): < 0.389 mg/kg/day | LOAEL (rat [19]; group: parental, systemic / in life observation / food consumption / food consumption + systemic / in life observation / mortality / mortality): 78.6 mg/kg/day | NOAEL (rat [19]; group: parental, systemic / in life observation / food consumption / food consumption + systemic / in life observation / mortality / mortality + systemic / …): 14.4 mg/kg/day | LEL (rat [19]; [38]): 14.4 mg/kg/day | LOAEL (rat [19]; [38]): 14.4 mg/kg/day | NEL (rat [19]; [38]): 2.31 mg/kg/day | NOAEL (rat [19]; [38]): 2.31 mg/kg/day
